Experimental data from BindingDB's records for doi:10.1016/s0960-894x(01)00185-8 (Dupont Pharmaceuticals, 2001).

Experiments:
[1] = biological target: Cyclin-dependent kinase 2/G1/S-specific cyclin-E1 (Homo sapiens, UniProt P24941); assay: Kinase Inhibition Assay
Description: (§1) The enzyme was assayed with substrate GST-Rb in the presence of 50 mM ATP/[gamma-32P] ATP, and capturing the 32-P labeled reaction products on GSH-Sepharose beads. […] Use of 32P-labeled ATP allows this transfer to be monitored by scintillation counting.

[2] = biological target: Cyclin-dependent kinase 4/G1/S-specific cyclin-D1 (Homo sapiens, UniProt P11802); assay: Kinase Inhibition Assay
Cyclin-dependent kinase 4/G1/S-specific cyclin-D1, sequence (P11802 whole entry): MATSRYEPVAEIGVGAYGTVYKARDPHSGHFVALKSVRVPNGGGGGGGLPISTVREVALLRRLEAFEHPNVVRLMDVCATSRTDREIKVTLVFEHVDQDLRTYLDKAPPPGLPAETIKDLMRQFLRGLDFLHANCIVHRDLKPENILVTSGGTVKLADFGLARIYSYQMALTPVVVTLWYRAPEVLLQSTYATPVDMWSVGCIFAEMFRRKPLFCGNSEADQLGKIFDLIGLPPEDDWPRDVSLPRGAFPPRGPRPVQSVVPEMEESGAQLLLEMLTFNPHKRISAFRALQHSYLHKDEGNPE
Cyclin-dependent kinase 4/G1/S-specific cyclin-D1, sequence (P24385 whole entry, further chain): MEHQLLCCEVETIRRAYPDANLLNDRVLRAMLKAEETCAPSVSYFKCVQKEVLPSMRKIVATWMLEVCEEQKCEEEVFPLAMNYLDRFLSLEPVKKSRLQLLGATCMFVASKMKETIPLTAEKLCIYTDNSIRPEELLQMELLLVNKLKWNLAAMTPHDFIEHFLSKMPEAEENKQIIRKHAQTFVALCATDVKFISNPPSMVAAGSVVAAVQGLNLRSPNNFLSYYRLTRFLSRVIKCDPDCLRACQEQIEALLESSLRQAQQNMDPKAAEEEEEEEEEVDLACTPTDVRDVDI
Description: as §1

IC50 [1]: 1.2 µM | IC50 [2]: 8.3 µM
SMILES: CC(C)(C)Nc1nc(C(F)(F)F)nc2ccc(-c3cccc(-c4cccnc4)c3)cc12 [N-tert-butyl-6-[3-(pyridin-3-yl)phenyl]-2-(trifluoromethyl)quinazolin-4-amine]
